Assay results from US8901315B2, “Thienopyrazole derivative having PDE7 inhibitory activity” (Daiichi Sankyo Company, Limited, priority 2004, dated 2014).
pIC50: −log10 of the molar value. Where a name gives a salt, the structure may show the parent alone. Read-outs that look alike come from different tables or passages of the source.

Experiments:
[1] = target: PDE 7 (phosphodiesterase VII) (Homo sapiens (Human), UniProt Q13946); experiment: PDE 7 inhibiting effect (3H-cAMP hydrolysis, PDE 7 active fraction from MOLT-4 cells); type: biochemical; settings: read-out: PDE7 IC50
PDE 7 (phosphodiesterase VII), sequence (Q13946 whole entry): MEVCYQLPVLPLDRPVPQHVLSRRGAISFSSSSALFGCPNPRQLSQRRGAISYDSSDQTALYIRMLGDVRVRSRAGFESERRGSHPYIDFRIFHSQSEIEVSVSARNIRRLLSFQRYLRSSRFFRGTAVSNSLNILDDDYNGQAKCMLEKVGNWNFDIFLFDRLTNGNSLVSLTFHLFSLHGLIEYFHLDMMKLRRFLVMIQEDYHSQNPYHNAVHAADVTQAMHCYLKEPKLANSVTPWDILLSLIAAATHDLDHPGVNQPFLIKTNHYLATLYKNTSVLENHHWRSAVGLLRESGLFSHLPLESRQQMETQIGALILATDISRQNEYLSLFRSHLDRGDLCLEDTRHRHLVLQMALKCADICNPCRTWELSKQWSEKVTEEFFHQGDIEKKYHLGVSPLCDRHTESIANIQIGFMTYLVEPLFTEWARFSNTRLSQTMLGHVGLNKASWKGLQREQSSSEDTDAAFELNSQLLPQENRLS
Outline: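 PDE7 taken from the soluble fraction of human MOLT-4 T cells (homogenised in pH 7.5 Tris buffer, 100,000×G spin), partially purified on HiTrap Q with a 0–0.8 M NaCl gradient. Inhibition measured as ³H-cAMP hydrolysis, with product separated using Sephadex-QAE in 10 mM HEPES-Na pH 7.0.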

[2] = target: PDE 4 (phosphodiesterase IV); experiment: PDE 4 inhibiting effect (3H-cAMP hydrolysis, PDE 4 active fraction from Balb/c mouse liver); type: biochemical; settings: PDE 4 fraction from Balb/c mice liver, 0.064 μM cAMP, 2 hours at 25° C.; read-out: PDE4 IC50
Outline: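 PDE4 was taken from the soluble liver fraction of male Balb/c mice (12 weeks), purified on DEAE sepharose with a sodium acetate gradient. Inhibition was measured as hydrolysis of 3H-cAMP. The reaction was followed by Sephadex-QAE treatment in HEPES-Na pH 7.0.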

[3] = PDE 7 fraction from MOLT-4 cells, 0.064 μM cAMP, 10 μM rolipram, 2 hours at 25° C.

SMILES: Cc1nn(C2CCCCC2)c2sc(C(=O)N[C@H]3CC[C@H](N4CCN(C)CC4=O)CC3)cc12 [Example 416, 1-Cyclohexyl-3-methyl-N-[trans-4-(4-methyl-2-oxo-1-piperazinyl)-cyclohexyl]-1H-thieno[2,3-c]pyrazole-5-carboxamide]
- pIC50 [1, 3]: 7.77
- pIC50 [2]: 5.89

SMILES: CC(=O)Nc1ccc(NC(=O)c2cc3c(C)nn(C4CCCCC4)c3s2)cc1 [Example 100, N-[4-(Acetylamino)phenyl]-1-cyclohexyl-3-methyl-1H-thieno[2,3-c]pyrazole-5-carboxamide]
- pIC50 [1, 3]: 7.43
- pIC50 [2]: < 4.52

SMILES: Cc1nn(C2CCCCC2)c2sc(C(=O)Nc3ccc(CCN(C)C)cc3)cc12 [Example 200, 1-Cyclohexyl-N-{4-[(dimethylamino)ethyl]phenyl}-3-methyl-1H-thieno[2,3-c]pyrazole-5-carboxamide]
- pIC50 [1, 3]: 7.80
- pIC50 [2]: 5.72

SMILES: Cc1nn(C2CCCCC2)c2sc(C(=O)Nc3ccc(N4CCC(O)CC4)c(Cl)c3)cc12 [Example 162, N-[3-Chloro-4-(4-hydroxy-piperidinyl)phenyl]-1-cyclohexyl-3-methyl-1H-thieno[2,3-c]pyrazole-5-carboxamide]
- pIC50 [1, 3]: 7.15
- pIC50 [2]: 5.70

SMILES: Cc1nn(C2CCCCC2)c2sc(C(=O)NCCN3CC(=O)N(C)C3=O)cc12 [Example 317, 1-Cyclohexyl-3-methyl-N-[2-(3-methyl-2,4-dioxo-1-imidazolidinyl)-ethyl]-1H-thieno[2,3-c]pyrazole-5-carboxamide]
- pIC50 [1, 3]: 7.17
- pIC50 [2]: 4.92

SMILES: CCOC(=O)c1ccc(NC(=O)c2cc3c(C)nn(C4CCCCC4)c3s2)cc1 [Example 40, Ethyl 4-{[(1-cyclohexyl-3-methyl-1H-thieno[2,3-c]pyrazol-5-yl)-carbonyl]amino}benzoate]
- pIC50 [1, 3]: 7.12
- pIC50 [2]: 4.82

SMILES: Cc1nn(C2CCCCC2)c2sc(C(=O)NCCN3CCN(C)C3=O)cc12 [Example 302, 1-Cyclohexyl-3-methyl-N-[2-(3-methyl-2-oxo-imidazolidinyl)ethyl]-1H-thieno[2,3-c]pyrazole-5-carboxamide]
- pIC50 [1, 3]: 7.22
- pIC50 [2]: 5.21

SMILES: Cc1nn(C2CCCCC2)c2sc(C(=O)N[C@H]3CC[C@H](NC(=O)N(C)CC(=O)OCc4ccccc4)CC3)cc12 [Example 275, Benzyl [{[(trans-4-{[(1 cyclohexyl-3-methyl-1H-thieno[2,3-c]pyrazol-5-yl)carbonyl]amino}cyclohexyl)amino]carbonyl}(methyl)amino]acetate]
- pIC50 [1, 3]: 8.40
- pIC50 [2]: 5.92

SMILES: Cc1nn(C2CCCCC2)c2sc(C(=O)Nc3ccc4c(c3)CCN4C(=O)C(C)C)cc12 [Example 23]
- pIC50 [1, 3]: 7.08
- pIC50 [2]: 5.32

SMILES: Cc1nn(C2CCOCC2)c2sc(C(=O)N[C@H]3CC[C@H](N4CCN(S(C)(=O)=O)CC4)CC3)cc12 [Example 396, 3-Methyl-N-{trans-4-[4-(methylsulfonyl)-1-piperazinyl]cyclohexyl}-1-tetrahydro-2H-pyran-4-yl-1H-thieno[2,3-c]pyrazole-5-carboxamide]
- pIC50 [1, 3]: 7.66
- pIC50 [2]: 6.05

SMILES: COCC(=O)Nc1ccc(NC(=O)c2cc3c(C)nn(C4CCCCC4)c3s2)cc1 [Example 101, 1-Cyclohexyl-N-{4-[(methoxyacetyl)amino]phenyl}-3-methyl-1H-thieno[2,3-c]pyrazole-5-carboxamide]
- pIC50 [1, 3]: 7.52
- pIC50 [2]: 5.89

SMILES: Cc1nn(C2CCCCC2)c2sc(C(=O)N[C@H]3CC[C@H](C(=O)N(C)C)CC3)cc12 [Example 208, 1-Cyclohexyl-N-{4-[(dimethylamino)carbonyl]cyclohexyl}-3-methyl-1H-thieno[2,3-c]pyrazole-5-carboxamide]
- pIC50 [1, 3]: 7.60
- pIC50 [2]: 5.42

SMILES: Cc1nn(C2CCCCC2)c2sc(C(=O)N[C@H]3CC[C@H](N4CCC(N)CC4)CC3)cc12 [Example 184, N-[trans-4-(4-Amino-1-piperidinyl)cyclohexyl]-1-cyclohexyl-3-methyl-1H-thieno[2,3-c]pyrazole-5-carboxamide]
- pIC50 [1, 3]: 8.17
- pIC50 [2]: 5.96

SMILES: Cc1nn(C2CCCCC2)c2sc(C(=O)Nc3ccc(C4CCNCC4)cc3)cc12 [Example 141, 1-Cyclohexyl-3-methyl-N-[4-(4-piperidinyl)phenyl]-1H-thieno[2,3-c]pyrazole-5-carboxamide HCl salt]
- pIC50 [1, 3]: 7.66
- pIC50 [2]: 5.80

SMILES: Cc1nn(C2CCCCC2)c2sc(C(=O)NC3CCN(C4CCOCC4)CC3)cc12 [Example 135, 1-Cyclohexyl-3-methyl-N-(1-tetrahydro-2H-pyran-4-yl-4-piperidinyl)-1H-thieno[2,3-c]pyrazole-5-carboxamide]
- pIC50 [1, 3]: 7.28
- pIC50 [2]: 5.13

SMILES: Cc1nn(C2CCOCC2)c2sc(C(=O)N[C@H]3CC[C@H](N4CCC(O)CC4)CC3)cc12 [Example 425, N-[trans-4-(4-Hydroxy-1-piperidinyl)cyclohexyl]-3-methyl-1-tetrahydro-2H-pyran-4-yl-1H-thieno[2,3-c]pyrazole-5-carboxamide]
- pIC50 [1, 3]: 7.05
- pIC50 [2]: 4.89

SMILES: Cc1nn(C2CCCCC2)c2sc(C(=O)N[C@H]3CC[C@H](N4CCC(N(C)C)CC4)CC3)cc12 [Example 181, 1-Cyclohexyl-N-{trans-4-[4-(dimethylamino)-1-piperidinyl]-cyclohexyl}-3-methyl-1H-thieno[2,3-c]pyrazole-5-carboxamide]
- pIC50 [1, 3]: 8.07
- pIC50 [2]: 6.07

SMILES: Cc1nn(C2CCCCC2)c2sc(C(=O)Nc3ccc(OCC(=O)N4CCN(C)CC4)cc3)cc12 [Example 76, 1-Cyclohexyl-3-methyl-N-{4-[2-(4-methyl-1-piperazinyl)-2-oxoethexy]-phenyl}-1H-thieno[2,3-c]pyrazole-5-carboxamide]
- pIC50 [1, 3]: 7.70
- pIC50 [2]: 5.70

SMILES: Cc1nn(C2CCOCC2)c2sc(C(=O)N[C@H]3CC[C@H](N4CCNC(=O)C4)CC3)cc12 [Example 417, 3-Methyl-N-[trans-4-(3-oxo-piperazinyl)cyclohexyl]-1-tetrahydro-2H-pyran-4-yl-1H-thieno[2,3-c]pyrazole-5-carboxamide]
- pIC50 [1, 3]: 7.20
- pIC50 [2]: 5.15

SMILES: CC(=O)N1CCN([C@H]2CC[C@H](NC(=O)c3cc4c(C)nn(C5CCOCC5)c4s3)CC2)CC1 [Example 395, N-[trans-4-(4-Acetyl-1-piperazinyl)cyclohexyl]-3-methyl-1-tetrahydro-2H-pyran-4-yl-1H-thieno[2,3-c]pyrazole-5-carboxamide]
- pIC50 [1, 3]: 7.72
- pIC50 [2]: 5.85

SMILES: Cc1nn(C2CCCCC2)c2sc(C(=O)Nc3ccc(C(=O)N4CCCN(C)CC4)nc3)cc12 [Example 383]
- pIC50 [1, 3]: 7.13
- pIC50 [2]: 5.62

SMILES: Cc1nn(C2CCCCC2)c2sc(C(=O)Nc3ccc(N4CCN(C)CC4)nc3)cc12 [Example 109, 1-Cyclohexyl-3-methyl-N-[6-(4-methyl-1-piperazinyl)-3-pyridinyl]-1H-thieno[2,3-c]pyrazole-5-carboxamide di-HCl salt]
- pIC50 [1]: 7.82
- pIC50 [2]: 6.00

SMILES: Cc1nn(C2CCCCC2)c2sc(C(=O)N[C@H]3CC[C@H](C(=O)N4CCC(O)CC4)CC3)cc12 [Example 239, 1-Cyclohexyl-N-{4-[(4-hydroxy-1-piperidinyl)carbonyl]cyclohexyl}-3-methyl-1H-thieno[2,3-c]pyrazole-5-carboxamide]
- pIC50 [1, 3]: 7.82
- pIC50 [2]: 5.59

SMILES: CCNC(=O)c1ccc(NC(=O)c2cc3c(C)nn(C4CCCCC4)c3s2)cc1 [Example 28, 1-Cyclohexyl-N-{4-[(ethylamino)carbonyl]phenyl}-3-methyl-1H-thieno[2,3-c]pyrazole-5-carboxamide]
- pIC50 [1, 3]: 7.30
- pIC50 [2]: 4.52

SMILES: Cc1nn(C2CCCCC2)c2sc(C(=O)Nc3ccc(N4CC[C@@H](O)C4)cc3)cc12 [Example 262, 1-Cyclohexyl-N-{4-[(3R)-3-hydroxypyrrolidinyl]phenyl}-3-methyl-1H-thieno[2,3-c]pyrazole-5-carboxamide]
- pIC50 [1, 3]: 7.55
- pIC50 [2]: 5.42

SMILES: Cc1nn(C2CCCCC2)c2sc(C(=O)Nc3ccc(C(=O)N4CCN(C)CC4)nc3)cc12 [Example 380, 1-Cyclohexyl-3-methyl N-{6-[(4-methyl-1-piperazinyl)carbonyl]-3-pyridinyl}-1H-thieno[2,3-c]pyrazole-5-carboxamide]
- pIC50 [1, 3]: 7.25
- pIC50 [2]: 5.82

SMILES: Cc1nn(C2CCCCC2)c2sc(C(=O)N[C@H]3CC[C@H](C#N)CC3)cc12 [Example 209, N-(4-Cyanocyclohexyl)-1-cyclohexyl-3-methyl-1H-thieno[2,3-c]-pyrazole-5-carboxamide]
- pIC50 [1, 3]: 7.11
- pIC50 [2]: 5.13

SMILES: CNC1CCN(c2ccc(NC(=O)c3cc4c(C)nn(C5CCCCC5)c4s3)cc2F)CC1 [Example 163, 1-Cyclohexyl-N-{3-fluoro-4-[4-(methylamino)-1-piperidinyl]phenyl}-3-methyl-1H-thieno[2,3-c]pyrazole-5-carboxamide]
- pIC50 [1, 3]: 7.85
- pIC50 [2]: 6.05

SMILES: Cc1nn(C2CCCCC2)c2sc(C(=O)N[C@H]3CC[C@H](N4CCC(O)CC4)CC3)cc12 [Example 176, 1-Cyclohexyl-N-[trans-4-(4-hydroxy-1-piperidinyl)cyclohexyl]-3-methyl-1H-thieno[2,3-c]pyrazole-5-carboxamide]
- pIC50 [1, 3]: 7.70
- pIC50 [2]: 5.77

SMILES: CC(=O)n1ccc2cc(NC(=O)c3cc4c(C)nn(C5CCCCC5)c4s3)ccc21 [Example 60, N-(1-Acetyl-1H-indol-5-yl)-1-cyclohexyl-3-methyl-1H-thieno[2,3-c]pyrazole-5-carboxamide]
- pIC50 [1, 3]: 7.19
- pIC50 [2]: 5.19

SMILES: CCN1C(=O)CN(CCNC(=O)c2cc3c(C)nn(C4CCCCC4)c3s2)C1=O [Example 316, 1-Cyclohexyl-N-[2-(3-ethyl-2,4-dioxo-1-imidazolidinyl)ethyl]-3-methyl-1H-thieno[2,3-c]pyrazole-5-carboxamide]
- pIC50 [1, 3]: 7.01
- pIC50 [2]: 4.82
